Molecules are shown by their SMILES. Where a name gives a salt, the structure may show the parent alone.

The test system of one data set is C57 BL/KsJ-db/db mice. Nature of the data set: blood sugar and triglycerides lowering activity in db/db mice. Format: in vivo, mouse (male C57 BL/KsJ-db/db). The settings on record: for Reduction in Blood Glucose Level / Triglyceride Lowering: oral gavage daily for 6 days, db/db mice. From the text:
Mutation in colonies of laboratory animals and different sensitivities to dietary regimens have made the development of animal models with non-insulin dependent diabetes associated with obesity and insulin resistance possible. Genetic models such as db/db and ob/ob (See Diabetes, (1982) 31(1): 1-6) in mice and fa/fa and zucker rats have been developed by the various laboratories for understanding the pathophysiology of disease and testing the efficacy of new antidiabetic compounds (Diabetes, (1983) 32: 830-838; Annu. Rep. Sankyo Res. Lab. (1994). 46: 1-57). The homozygous animals, C57 BL/KsJ-db/db mice developed by Jackson Laboratory, US, are obese, hyperglycemic, hyperinsulinemic and insulin resistant (J. Clin. Invest., (1990) 85: 962-967), whereas heterozygous are lean and normoglycemic. In db/db model, mice progressively develop insulinopenia with age, a feature commonly observed in late stages of human type II diabetes when blood sugar levels are insufficiently controlled. The state of pancreas and its course vary according to the models. Since this model resembles that of type II diabetes mellitus, the compounds of the present invention were tested for blood sugar and triglycerides lowering activities.
Male C57 BL/KsJ-db/db mice of 8 to 14 weeks age, having body weight range of 35 to 60 grams, procured from the Jackson Laboraotory, USA, were used in the experiment. The mice were provided with standard feed (National Institute of Nutrition, Hyderabad, India) and acidified water, ad libitum. The animals having more than 300 mg/dl blood sugar were used for testing. The number of animals in each group was 4.
The random blood sugar and triglyceride levels were measured by collecting blood (100 μl) through orbital sinus, using heparinised capillary in tubes containing EDTA which was centrifuged to obtain plasma. The plasma glucose and triglyceride levels were measured spectrometrically, by glucose oxidase and glycerol-3-PO4 oxidase/peroxidase enzyme (Dr. Reddy's Lab. Diagnostic Division Kits, Hyderabad, India) methods respectively. On 6th day the blood samples were collected one hour after administration of test compounds/vehicle for assessing the biological activity.
Test compounds were suspended on 0.25% carboxymethyl cellulose or water (for water soluble compounds) and administered to test group at a dose of 10 to 30 mg/kg through oral gavage daily for 6 days. The control group received vehicle (dose 10 ml/kg).
The blood sugar and triglycerides lowering activities of the test compound was calculated according to the formula: [formula] ZC=Zero day control group value DC=Zero day treated group value
TC=Control group value on test day
DT=Treated group value on the test day

For the next data set, the system named is rats. Nature of the data set: Subacute toxicity in rats. The conditions noted are these: 100 mg/kg orally. The data set is classed as in vivo. The method, then:
Groups of 20 rats, consisting of 10 males and 10 females, weighing between 120 to 140 gm, received orally 100 mg/kg of compound of Example 6 for 28 days. The behavioral changes and body weights were monitored daily. The rats were sacrificed on the 29th day and blood was collected for hematological and biochemical estimations. All vital organs were examined both macroscopically and microscopically.

On to `O=C1NC(=O)C(=Cc2ccc(O[C@H]3CCN(c4ccccn4)C3)cc2)S1` [Example 23, 5-[4-[1-(Pyridin-2-yl)-(3S)-pyrrolidin-3-yloxy]phenylmethylene]thiazolidine-2,4-dione, hydrochloride salt], for which, in the data set with C57 BL/KsJ-db/db mice (10 mg/kg), the “Reduction in Blood Glucose Level” value was 46% and the “Triglyceride Lowering” value is given as 10%.
As to `Cc1cc(N2CCC[C@H]2COc2ccc(CC3SC(=O)NC3=O)cc2)nc2ccccc12` (stereo partly drawn) [Example 20, 5-[4-[[1-(Lepidin-2-yl)-(2S)-pyrrolidin-2-yl]methoxy]phenylmethyl]thiazolidine-2,4-dione, sodium salt], in the data set with C57 BL/KsJ-db/db mice (30 mg/kg), the “Reduction in Blood Glucose Level” value is 30% and the “Triglyceride Lowering” value turned out to be 62%.
Turning to `O=C1NC(=O)C(=Cc2ccc(OC[C@@H]3CCCN3c3ccccn3)cc2)S1` [Example 6, 5-[4-[[1-(Pyridin-2-yl)-(2S)-pyrrolidin-2-yl]methoxy]phenylmethylene]thiazolidine-2,4-dione, maleic acid salt], in the data set on rats (28 days), the “gross macroscopic and microscopic changes of heart, lungs, bone marrow, kidneys and spleen” value was “No gross macroscopic and microscopic changes of heart, lungs, bone marrow, kidneys and spleen were observed”; the mortality result was “did not produce any mortality”. The “Organ Weight, Heart” value in the data set with rats (28 days, Control 0.59 ± 0.09) worked out at 0.61 ± 0.08 g. Moreover, the RBC in the data set with rats (28 days, Control 7.33 ± 0.75) is 7.08 ± 0.93 × 10^6 /mm^3. In the data set on rats (28 days, Control 8.08 ± 2.01), the WBC is 9.19 ± 2.11 × 10^3 /mm^3. For the same molecule, the Hemoglobin in the data set with rats (28 days, Control 15.18 ± 0.69) is 14.88 ± 0.46 gm/dl. The PVC in the data set on rats (28 days, Control 52.06 ± 2.58) is on record as 52.21 ± 2.67%. The “hematological and biochemical parameters, deviations from control” value in the data set on rats (end of 28 days treatment) was “no significant deviations from the control were observed in hematological and biochemical parameters”. Moreover, in the data set on C57 BL/KsJ-db/db mice (10 mg/kg), the “Reduction in Blood Glucose Level” value came to 49% and the “Triglyceride Lowering” value is listed as 71%.
As for `O=C1NC(=O)C(Cc2ccc(OC[C@@H]3CCCN3c3ccc4ccccc4n3)cc2)S1` (stereo partly drawn) [Example 12, 5-[4-[[1-(Quinolin-2-yl)-(2S)-pyrrolidin-2-yl]methoxy]phenylmethyl]thiazolidine-2,4-dione], in the data set on C57 BL/KsJ-db/db mice (30 mg/kg), the “Reduction in Blood Glucose Level” value is reported as 27% and the “Triglyceride Lowering” value was determined as 49%.
Take `O=C1NC(=O)C(Cc2ccc(OCC3CN(c4ccccn4)CCO3)cc2)S1` (stereo not drawn) [Example 27, 5-[4-[[4-(Pyridin-2-yl)morpholin-2yl]methoxy]phenylmethyl]thiazolidine-2,4-dione, sodium salt]: in the data set on C57 BL/KsJ-db/db mice (10 mg/kg), the “Reduction in Blood Glucose Level” value is 56% and the “Triglyceride Lowering” value stood at 29%.
Consider `Cc1c(C)c2c(c(C)c1O)CCC(C)(COc1ccc(CC3SC(=O)NC3=O)cc1)O2` (stereo not drawn) [Troglitazone, reference compound], for which, in the data set on C57 BL/KsJ-db/db mice (100 mg/kg daily dose, standard drug, on 6th day), the “reduction in random blood sugar level” value is given as 28%.
In the case of `O=C1NC(=O)C(=Cc2ccc(OC[C@@H]3CCCN3c3ccccn3)cc2)S1` [Example 7, 5-[4-[[1-(Pyridin-2-yl)-(2S)-pyrrolidin-2-yl]methoxy]phenylmethylene]thiazolidine-2,4-dione, hydrochloride salt], in the data set with C57 BL/KsJ-db/db mice (30 mg/kg), the “Reduction in Blood Glucose Level” value stood at 67% and the “Triglyceride Lowering” value is given as 43%.
